Entries after “also recorded” stand apart in the source; their conditions may differ. Read-outs that look alike come from different tables or passages of the source.
Columns and labels:
[1] = system: planktonic cultures of C. albicans; experiment: Planktonic sensitivity (MIC, MFC) of C. albicans to antifungal agents; type: cell-based, Candida albicans
Procedure: (§1) Biofilm susceptibility testing uses the pegged lid of the assembly, now containing biofilms formed after rocking in the tray for 24 hour. Each peg on the lid was gently washed once in […] of phosphate buffered saline solution (PBSS) in a 96-well microtiter plate (Falcon). The pegged lid was then transferred to another 96 well microtiter plate containing 2 fold dilutions antifungal agent in 200 μl of RPMI 1640 (Sigma, St. Louis, Mo.) or RPMI 1640 containing 1% DMSO (see test drug section). After the pegs were exposed to the drugs for 24 hours, the pegged lid was removed and gently rinsed twice in saline. The pegged lid was then placed on a 96 well plate containing RPMI 1640 recovery medium. The pegs were sonicated for 5 minutes (Candida spp.) or 7 minutes (Aspergillus) in an ultrasonicator to dislodge adherent cells into the recovery medium. Aliquots of 20 μl of the recovery medium were spot plated on SDA (Candida spp) or Rose Bengal Agar (A. fumigatus) to obtain the MBEC. The assembly was also used to determine the minimum inhibitory concentration (MIC) and minimum fungicidal concentration (MFC). The turbidity of the wells that contained the antibiotic and planktonic cells which were shed from the biofilm was measured at […] to obtain the MIC. A 20 μl sample from each well was also spot plated onto Sabouraud Dextrose agar (Candida spp) or Rose Bengal Agar (A. fumigatus) to obtain the MFC.
Minimum Inhibitory Concentrations (MIC) and Minimum Fungicidal Concentrations (MFC) were determined according to the guidelines of the National Committee for Clinical laboratory Standards (NCCLS). Briefly, Candida sp. were maintained on polystyrene spheres at −70° C. until plating. […]
(§2) The test wells were then incubated at 37° C. for 24 hours with the antifungal drugs. MICs for Candida were obtained after incubation by reading the turbidity at 650 nm on a microtiter plate reader (Softmax, VWR). […] MFCs were determined for Aspergillus by plating 100 μl from each well onto Rose Bengal Agar, followed by spreading with a sterile glass spreader. […]

[2] = system: C. tropicalis planktonic cells; experiment: Planktonic sensitivity (MIC) of C. tropicalis to antifungal agents; type: cell-based, Candida tropicalis; conditions: C. tropicalis strain tested
Procedure: Biofilm susceptibility testing uses the pegged lid of the assembly, now containing biofilms formed after rocking in the tray for 24 hour. Each peg on the lid was gently washed once in […] of phosphate buffered saline solution (PBSS) in a 96-well microtiter plate (Falcon). The pegged lid was then transferred to another 96 well microtiter plate containing 2 fold dilutions antifungal agent in 200 μl of RPMI 1640 (Sigma, St. Louis, Mo.) or RPMI 1640 containing 1% DMSO (see test drug section). After the pegs were exposed to the drugs for 24 hours, the pegged lid was removed and gently rinsed twice in saline. The pegged lid was then placed on a 96 well plate containing RPMI 1640 recovery medium. […] The turbidity of the wells that contained the antibiotic and planktonic cells which were shed from the biofilm was measured at […] to obtain the MIC. […]
Minimum Inhibitory Concentrations (MIC) and Minimum Fungicidal Concentrations (MFC) were determined according to the guidelines of the National Committee for Clinical laboratory Standards (NCCLS). […]
as §2

[3] = system: Candida biofilms; experiment: Minimum biofilm eradication concentration assay, Candida spp.; type: cell-based; conditions: sessile (biofilm) Candida
Procedure: (§3) Biofilm formation and measurement of antimicrobial sensitivity of Candida and Aspergillus biofilms were performed using an assembly of the present invention. The device features a microtliter plate lid with 96 pegs or projections distributed on the lid. Each peg provided the surface for microorganism to adhere, colonize and form a uniform biofilm. The pegs fit precisely into the wells of a standard 96-well microtiter plate. The lid was used in conjunction with a base having special troughs for growing, washing, and incubating fungi. Colonies of Candida sp. were picked from 24 hour cultures on Sabouraud Dextrose agar (SDA) (BBL Microbiological Systems, Cockeysville, Md.) and placed into Mueller-Hinton Broth (MHB) (Difco Laboratories, Detroit Mich.) such that the suspension matched a McFarland standard of 1.0. This suspension was then diluted 1:30 in MHB, and 25 ml were pipetted into the trough chamber of the base. The closed assembly (lid with pegs positioned on the base) was placed on a Hoeffer Red Rocker (VWR, Scientific) set to rock the plates 3.5 cycles per minute in a 37° C. incubator. C. albicans and C. tropicalis were incubated aerobically, while C. glabrata was incubated in 10% CO2. It was determined in preliminary experiments that C. glabrata required 10% CO2 atmosphere for biofilms to form.
as §1
Drugs tested. […]

[4] = system: biofilm cells of C. albicans; experiment: Minimum biofilm eradication concentration assay, C. albicans; type: cell-based, Candida albicans; conditions: 24 hours exposure
Procedure: as §3, with “The closed assembly (lid with pegs positioned on the base) was placed on a Hoeffer Red Rocker (VWR, Scientific) set to rock the plates 3.5 cycles per minute in a 37° C. incubator. C. albicans and C. tropicalis were incubated aerobically, while C. glabrata was incubated in 10% CO2.” left out
Biofilm susceptibility testing uses the pegged lid of the assembly, now containing biofilms formed after rocking in the tray for 24 hour. […] The turbidity of the wells that contained the antibiotic and planktonic cells which were shed from the biofilm was measured at […] to obtain the MIC. […]

[5] = system: invasive pulmonary, sinus and cerebral aspergillosis; conditions: cited from earlier work
[6] = system: Staphylococcus aureus (Staph) planktonic bacteria; experiment: MBEC assay, Staph planktonic bacteria exposed to antibiotics and combinations (Example 5); type: cell-based; conditions: number of the 12 isolates from device associated infections that are resistant; 24 hours exposure
[7] = system: Staphylococcus aureus (Staph) biofilm; experiment: MBEC assay, Staph biofilms exposed to antibiotics and combinations (Example 5); type: cell-based; conditions: number of the 12 isolates from device associated infections that are resistant; 24 hours exposure
[8] = system: Pseudomonas aeruginosa (Ps) planktonic bacteria; experiment: MBEC assay, Ps planktonic bacteria exposed to antibiotics and combinations (Example 5); type: cell-based; conditions: number of the 12 isolates from Cystic Fibrosis patients that are resistant; 24 hours exposure
[9] = system: Pseudomonas aeruginosa (Ps) biofilm; experiment: MBEC assay, Ps biofilms exposed to antibiotics and combinations (Example 5); type: cell-based; conditions: number of the 12 isolates from Cystic Fibrosis patients that are resistant; 24 hours exposure
[10] = system: P. aeruginosa planktonic bacteria shed from the biofilm; experiment: P. aeruginosa biofilm assay kit, planktonic MIC read on challenge plate (Example 8); type: cell-based, Pseudomonas aeruginosa; conditions: challenge 35° C. for 24 hours; breakpoint concentrations
[11] = system: P. aeruginosa biofilm; experiment: P. aeruginosa biofilm assay kit, biofilm MBEC read on recovery plate (Example 8); type: cell-based, Pseudomonas aeruginosa; conditions: challenge 35° C. for 24 hours; recovery 20 to 24 hours; breakpoint concentrations
[12] = system: Staphylococcus aureus planktonic forms; experiment: Staphylococcus test plate, planktonic sensitivity (Example 9); type: cell-based; conditions: figure in the label = antibiotic concentration, breakpoint concentrations
[13] = system: Staphylococcus aureus biofilm; experiment: Staphylococcus test plate, biofilm sensitivity (Example 9); type: cell-based; conditions: figure in the label = antibiotic concentration, breakpoint concentrations
[14] = planktonic cultures of C. albicans, 24 hours

Molecule: OC(Cn1cncn1)(Cn1cncn1)c1ccc(F)cc1F [fluconazole, Fluconazole]
- classification by MIC criterion (MIC less than or equal to 8 μg/ml = susceptible) ([1]; C. albicans strain tested, planktonic): susceptible
- classification by MIC criterion (MIC less than or equal to 8 μg/ml = susceptible) [2]: susceptible

Molecule: Polymyxin B
- effectiveness against Candida growing as a biofilm [3]: ineffective

Molecule: C[C@@H]1[C@H](O)[C@@H](C)/C=C/C=C/C=C/C=C/C=C/C=C/C=C/[C@H](O[C@@H]2O[C@H](C)[C@@H](O)[C@H](N)[C@@H]2O)C[C@@H]2O[C@](O)(C[C@@H](O)C[C@@H](O)[C@H](O)CC[C@@H](O)C[C@@H](O)CC(=O)O[C@H]1C)C[C@H](O)[C@H]2C(=O)O [amphotericin B, Amphotericin B]
- average MFC [1, 14]: 0.02 µg/mL
- average MIC [1, 14]: 0.09 µg/mL
- average concentration required to kill biofilm cells (MBEC) [4]: 12 µg/mL
- effectiveness against Candida growing as a biofilm [3]: most effective
- crude mortality rate of treated patients ([5]; invasive cerebral aspergillosis): 99%
- crude mortality rate of treated patients ([5]; invasive pulmonary aspergillosis): 86%
- crude mortality rate of treated patients ([5]; invasive sinus aspergillosis): 66%

Molecule: gentamicin [GM]
- Staph resistance to individual antibiotics and antibiotic combinations, Planktonic [6]: 6
- Staph resistance to individual antibiotics and antibiotic combinations, Biofilm [7]: 10
- Ps resistance to individual antibiotics and antibiotic combinations, Planktonic [8]: 8
- Ps resistance to individual antibiotics and antibiotic combinations, Biofilm [9]: 12
- Number of P. aeruginosa isolates resistant to individual antibiotics and antibiotic combinations, Planktonic [10]: 8
- Number of P. aeruginosa isolates resistant to individual antibiotics and antibiotic combinations, Biofilm [11]: 12
- Number of Staphylococcus aureus isolates resistant to individual antibiotics and antibiotic combinations, Planktonic ([12]; listed as GM2): 4
- Number of Staphylococcus aureus isolates resistant to individual antibiotics and antibiotic combinations, Planktonic ([12]; listed as GM4): 3
- Number of Staphylococcus aureus isolates resistant to individual antibiotics and antibiotic combinations, Biofilm ([13]; listed as GM2): 11
- Number of Staphylococcus aureus isolates resistant to individual antibiotics and antibiotic combinations, Biofilm ([13]; listed as GM4): 10

Molecule: COC1=CC(=O)C[C@@H](C)[C@]12Oc1c(Cl)c(OC)cc(OC)c1C2=O [Griseofulvin]
- effectiveness against Candida growing as a biofilm [3]: ineffective

Molecule: Colistin [CLO]
- Ps resistance to individual antibiotics and antibiotic combinations, Planktonic [8]: 2
- Ps resistance to individual antibiotics and antibiotic combinations, Biofilm [9]: 12
- Number of P. aeruginosa isolates resistant to individual antibiotics and antibiotic combinations, Planktonic [10]: 2
- Number of P. aeruginosa isolates resistant to individual antibiotics and antibiotic combinations, Biofilm [11]: 12

Molecule: C[C@@H]1[C@H](O)[C@@H](C)/C=C/C=C/CC/C=C/C=C/C=C/C=C/C(O[C@H]2O[C@H](C)[C@@H](O)[C@H](N)[C@@H]2O)CC2O[C@](O)(CC(O)C(O)CCC(O)CC(O)CC(O)CC(=O)O[C@H]1C)CC(O)C2C(=O)O (some centres unmarked) [nystatin, Nystatin]
- effectiveness against Candida growing as a biofilm [3]: effective; also recorded: most effective
